The target in this assay is AICARFT (Homo sapiens, UniProt P31939). The assay is described as follows: AICARFT activity, spectrophotometric enzyme assay (modified Black et al.). It is filed as biochemical. The conditions noted are these: 50 mM Tris-HCl pH 7.5, 25° C., absorbance at 298 nm, substrates AICAR and FTHF, steady-state rate. The procedure:
Enzymatic activity was measured spectrophotometrically using a modified assay developed by Black et al. (“A Rapid Assay for 5-Amino-4-imidazolecarboxamide Ribotide Transformylase,” Anal. Biochiem. 90 (1978), 397-401). The reaction volume was 1 mL and contained 50 mM Tris-HCl pH 7.5, 25 mM KCl, 20 mM 2-mercaptoethanol, variable concentrations of test compound in 1% DMSO, […] (5-aminoimidazole-4-carboxamideribonucleotide), […] tetrathydrofolate (FTHF), and 0.015 mM enzyme. The reaction was enzyme-initiated and followed by monitoring the increase in absorbance at 298 nm at 25° C. (ξ298=19.7×10^3 cm^−1M^−1). AICARFT inhibition constants (Ki) were determined from the dependence of the steady-state catalytic rate upon compound and substrate concentration.
Chain of AICARFT (P31939 whole entry): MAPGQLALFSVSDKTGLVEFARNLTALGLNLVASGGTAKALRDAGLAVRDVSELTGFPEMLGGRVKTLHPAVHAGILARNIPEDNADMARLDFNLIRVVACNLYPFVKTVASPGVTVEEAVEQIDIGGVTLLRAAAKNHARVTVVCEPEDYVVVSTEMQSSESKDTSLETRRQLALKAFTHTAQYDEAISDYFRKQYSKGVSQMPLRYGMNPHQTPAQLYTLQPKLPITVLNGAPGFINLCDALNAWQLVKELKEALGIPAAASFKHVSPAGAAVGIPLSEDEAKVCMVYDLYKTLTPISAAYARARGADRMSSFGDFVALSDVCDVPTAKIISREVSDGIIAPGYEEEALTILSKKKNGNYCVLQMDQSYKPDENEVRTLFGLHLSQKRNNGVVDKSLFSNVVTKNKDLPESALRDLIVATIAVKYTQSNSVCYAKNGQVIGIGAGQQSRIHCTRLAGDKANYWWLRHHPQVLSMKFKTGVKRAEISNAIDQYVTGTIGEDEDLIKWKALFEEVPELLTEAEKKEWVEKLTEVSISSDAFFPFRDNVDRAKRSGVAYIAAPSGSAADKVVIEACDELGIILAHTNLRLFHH
A word on the Ki: it is the equilibrium dissociation constant of an inhibitor or competing ligand from its target. Higher therefore signals lower affinity. The compound `O=C(O)c1ccc(CCCCCSc2nc(-c3ccccc3)cc(=O)[nH]2)s1` [Compound 1, 5-(5-[(6-Phenyl-4(3H)-oxopyrimidin-2-yl)thio]pentyl)thiophene2-carboxylic acid] yielded a Ki of 3500 nM.
Regarding `O=C(O)c1ccc(CCCSc2nc(-c3ccccc3)cc(=O)[nH]2)s1` [Compound 2, 5-(3-[(6-Phenyl-4(3H)-oxopyrimidin-2-yl)thio]propyl)thiophene-2-carboxylic acid], the Ki was found to be 7200 nM.
`O=C(O)c1ccc(CCCCCSc2nc(-c3ccc(-c4cccs4)s3)cc(=O)[nH]2)s1` [Compound 3, 5-[5-([6-(5-[2-Thienyl]thien-2-yl)-4(3H)-oxopyrimidin-2-yl]thio)pentyl]thiophene-2-carboxylic acid] came in with a Ki of 280 nM. Against the preceding compound, the Ki is about 26-fold lower.
For the compound `COC(=O)c1ccc(CCCCCSc2nc(-c3ccc(-c4ccccc4)cc3)cc(=O)[nH]2)s1` [Compound 4, Methyl 5-[5-([6-(4-biphenylyl)-4(3H)-oxopyrimidin-2-yl]thio)pentyl]-thiophene-2-carboxylate], the Ki was found to be 54700 nM. Against the preceding compound, the Ki is about 200-fold higher.
The result for `O=C(O)c1ccc(CCCCCSc2nc(-c3ccc(-c4ccccc4)cc3)cc(=O)[nH]2)s1` [Compound 5, 5-[5-([6-(4-Biphenylyl)-4(3H)-oxopyrimidin-2-yl]thio)pentyl]thiophene-2-carboxylic acid] reads 270 nM; that for `O=C(O)c1ccc(CCCCCSc2nc(-c3ccc(Oc4ccccc4)cc3)cc(=O)[nH]2)s1` [Compound 6, 5-[5-([6-(4-Phenoxypheuyl)-4(3H)-oxopyrimidin-2-yl]thio)pentyl]thiophene-2-carboxylic acid], 430 nM; that for `O=C(O)c1ccc(CCCCCSc2nc(-c3ccc(N4CCOCC4)cc3)cc(=O)[nH]2)s1` [Compound 7, 5-[5-([6-(4-Morpholinylphenyl)-4(3H)-oxopyrimidin-2-yl]thio)pentyl]-thiophene-2-carboxylic acid], 220 nM.
The compound `N#Cc1c(-c2ccc(-c3cccs3)s2)nc(SCCCCCc2ccc(C(=O)O)s2)[nH]c1=O` [Compound 8, [5-([5-Cyano-6-(5-[2-thienyl]thien-2-yl)-4(3H)-oxopyrimidin-2-yl]thio)pentyl]thiopbene-2-carboxylic acid] had an inhibition constant Ki of 40 nM.
For the compound `O=C(O)CCC(NC(=O)c1ccc(CCCCCSc2nc(-c3ccccc3)cc(=O)[nH]2)s1)C(=O)O` (stereo not drawn) [Compound 9, N-(5-[5-([6-Phenyl-4(3H)-oxopyrimidin-2-yl]thio)pentyl]theno-2-yl)glutamic acid], the affinity, expressed as Ki, was 460 nM.
The result for `N#Cc1c(-c2ccc(-c3cccs3)s2)nc(SCCCCCc2ccc(C(=O)NC(CCC(=O)O)C(=O)O)s2)[nH]c1=O` (stereo not drawn) [Compound 10, N-(5-[5-([5-Cyano-6-(5-[2-thienyl]thien-2-yl)-4(3H)-oxopyrimidin-2-yl]thio)pentyl]theno-2-yl)glutamic acid] reads 4 nM.
Consider `O=C(O)CCC(NC(=O)c1ccc(CCCCSc2nc(-c3ccccc3)cc(=O)[nH]2)s1)C(=O)O` (stereo not drawn) [Compound 11, N-(5-[5-([6-Phenyl-4(3H)-oxopyrimidin-2-yl]thio)butyl]thio2-yl)glutamic acid], for which the Ki amounted to 6800 nM.
For `O=C(O)CCC(NC(=O)c1ccc(CCSc2nc(-c3ccccc3)cc(=O)[nH]2)s1)C(=O)O` (stereo not drawn) [Compound 12, N-(5-[2-([6-Phenyl-4(3H)-oxopyrimidin-2-yl]thio)ethyl]theno-2-yl)glutamic acid] the value was 8900 nM; for `O=C(O)CCC(NC(=O)c1ccc(CCCSc2nc(-c3ccccc3)cc(=O)[nH]2)s1)C(=O)O` (stereo not drawn) [Compound 13, N-(5-[3-([6Phenyl-4(3H)-oxopyrimidin-2-yl]thio)propyl]theno-2-yl)glutamic acid], 5300 nM; for `N#Cc1c(-c2ccc(-c3cccs3)s2)nc(SCc2ccc(S(=O)(=O)Nc3ccc(F)cc3)cc2)[nH]c1=O` [Compound 14, N-(4-Fluorophenyl) 4-[([5-cyano-6-(5-[2-thienyl]thien-2-yl)-4(3H)-oxopyrimidin-2-yl]thio)methyl]benzenesulfonamide], 590 nM.
Turning to `CN(c1ccc(F)cc1)S(=O)(=O)c1ccc(CSc2nc(-c3ccc(-c4cccs4)s3)c(C#N)c(=O)[nH]2)cc1` [Compound 15, N-(4-Fluorophenyl)-N-methyl 4-[([5cyano-6-(5-[2-thienyl]thien-2-yl)-4(3H)-oxopyrimidin-2-yl]thio)methyl]benzenesulfonamide], the Ki was 2100 nM.
The result for `Cc1ccc2cc(NS(=O)(=O)c3ccc(CSc4nc(-c5ccc(-c6cccs6)s5)c(C#N)c(=O)[nH]4)cc3)ccc2n1` [Compound 16, N-(2-Methylquinolin-6-yl) 4-[([5-cyan-6-(5-[2-thienyl]thien-2yl)-4(3H)-oxopyrimidin-2-yl]thio)methyl]benzenesulfonamide] reads 430 nM; that for `Cc1cc(CSc2nc(-c3ccc(-c4cccs4)s3)c(C#N)c(=O)[nH]2)ccc1S(=O)(=O)Nc1ccc(F)cc1` [Compound 17, N-(4-Fluorophenyl) 4-[([5-cyano-6-(5-[2-thienyl]thien-2-yl)-4(3H)-oxopyrimidin-2-yl]thio)methyl]-2-methylbenzenesulfonamide], 1000 nM.
Consider `N#Cc1c(-c2ccc(-c3cccs3)s2)nc(SCc2ccc(NS(=O)(=O)c3ccc(F)cc3)cc2)[nH]c1=O` [Compound 18, N-(4-[([5-Cyano-6-(5-[2-thienyl]thien-2-yl)-4(3H)-oxopyrimidin-2-yl]thio)methyl]phenyl) 4-fluorobenzenesulfonamide], for which the Ki amounted to 380 nM.
With `N#Cc1c(-c2ccc(-c3cccs3)s2)nc(SCc2ccc(S(=O)(=O)Nc3ccc(F)cc3)cc2Cl)[nH]c1=O` [Compound 19, N-(4-Fluorophenyl) 4-[([5-cyano-6-(5-[2-thienyl]thien-2-yl)-4(3H)-oxopyrimidin-2-yl]thio)methyl]-3-chlorobenzenesulfonamide], the affinity corresponds to a Ki of 400 nM.
Consider `CN(c1ccc(CSc2nc(-c3ccc(-c4cccs4)s3)c(C#N)c(=O)[nH]2)cc1)S(=O)(=O)c1ccc(F)cc1` [Compound 20, N-(4-[([5Cyano-6(5-[2-thienyl]thien-2-yl)-4(3 H)-oxopyrimidin-2-yl]thio)methyl]phenyl)-N-methyl 4-fluorobenzenesulfonamide], for which the Ki worked out at 1800 nM. This Ki is about 4.5-fold higher than that of the compound before.
The compound `N#Cc1c(-c2ccc(-c3cccs3)s2)nc(SCc2ccc(NS(=O)(=O)c3ccc(F)cc3)cc2Cl)[nH]c1=O` [Compound 21, N-(3-Chloro-4-[([5-cyano-6-(5-[2-thienyl]thien-2-yl)-4(3H)-oxopyrimidin-2-yl]thio)methyl]phenyl) 4-fluorobenzenesulfonamide] returned a Ki of 29 nM.
Take `Cc1cc(CSc2nc(-c3ccc(-c4cccs4)s3)c(C#N)c(=O)[nH]2)ccc1NS(=O)(=O)c1ccc(F)cc1` [Compound 22, N-(4-[([5-Cyano-6-(5-[2-thienyl]thien-2-yl)4(3H)-oxopyrimidin-2-yl]thio)methyl]-2-methylphenyl) 4-fluorobenzenesulfonamide]: the affinity corresponds to a Ki of 1000 nM.
The result for `COc1cc(NS(=O)(=O)c2ccc(F)cc2)ccc1CSc1nc(-c2ccc(-c3cccs3)s2)c(C#N)c(=O)[nH]1` [Compound 23, N-(4-[([5-Cyano-6-(5-[2-thienyl]thien-2-yl)-4(3H)-oxopyrimidin-2-yl]thio)methyl]-3-methoxyphenyl) 4-fluorobenzenesulfonamide] reads 770 nM; that for `COc1cc(CSc2nc(-c3ccc(-c4cccs4)s3)c(C#N)c(=O)[nH]2)ccc1NS(=O)(=O)c1ccc(F)cc1` [Compound 24], 1300 nM.
For `N#Cc1c(-c2ccc(-c3cccs3)s2)nc(SCc2cccc(NS(=O)(=O)c3ccc(F)cc3)c2)[nH]c1=O` [Compound 25, N(3-[([5-Cyano-6-(5-[2-thienyl]thien-2-yl)-4(3H)-oxopyrimidin-2-yl]thio)methyl]phenyl) 4-fluorobenzenesulfonamide], the Ki was 1400 nM.
The compound `O=C(O)c1ccc(CCCCCSc2nc(-c3cccc(-c4nn[nH]n4)c3)cc(=O)[nH]2)s1` [Compound 26, 5-[5-([6-(3-[1(H)-Tetrazol-5-yl]phenyl)-4(3H)-oxopyrimidin-2-yl]thio)pentyl]thiophene-2-carboxylic acid] returned a Ki of 370 nM.
`N#Cc1c(-c2ccc(-c3cccs3)s2)nc(SCc2ccc(S(=O)(=O)NCCc3c[nH]c4ccccc34)cc2)[nH]c1=O` [Compound 27, N-(2-[1(H)-indol-3-yl]-ethyl) 4-[([5-cyano-6-(5-[2-thienyl]thien-2-yl)-4(3H)-oxopyrimidin-2-yl]thio)methyl]benzenesulfonamide] yielded a Ki of 83 nM.
